Key:
HT-29 cells = assay: HT-29 cell proliferation (3H-thymidine incorporation); assay type: cell-based, human; conditions: co-treatment with autophagy inhibitor, 72 hours
Experimental: Cell proliferation was measured by ^3H-Thymidine incorporation. Briefly, 0.5 μCi ^3H-Thymidine (Perkin Elmer, Waltham, MA; NET027WW001MC) was added to cells in 200 μL of culture media in a 96 well plate for 8-18 hours. Plates were frozen to stop cell growth, cells harvested onto glass fiber filters (Perkin Elmer, 1450-421) dried by microwave, wet with FiltronX liquid scintillation fluid (National Diagnostics, Atlanta, GA; LS-201) and incorporated radioactivity counted in a liquid scintillation counter (Perkin Elmer, MicroBeta-1450 or MicroBeta-2450). […] All lines were used for a maximum number of 10-15 passages over ˜4 years. All cell lines tested negative for mycoplasma (yearly) and MTBM (Molecular Testing of Biological Materials; tested once).

LC3B [1] = assay: LC3B autophagy marker by immunoblotting in HT-29 cells; assay type: cell-based, human; conditions: for LC3B accumulation in cells treated with 1 μM NVP or NVP-Iso: spautin 5 μM, 3-MA 5 mM, chloroquine 10 μM
Experimental: Western blotting. Protein lysates were separated by SDS-PAGE and then transferred to a nitrocellulose membrane. After blocking, membranes were incubated overnight with antibodies to LC3 (rabbit Monoclonal antibody, Cell Signaling).

LC3B [2] = assay: LC3B accumulation in SW620 cells; assay type: cell-based, human; conditions: pre-treatment 4 hours; spautin 5 μM, 3-MA 5 mM
Experimental: Western blotting. Protein lysates were separated by SDS-PAGE and then transferred to a nitrocellulose membrane. After blocking, membranes were incubated overnight with antibodies to LC3 (rabbit Monoclonal antibody, Cell Signaling). After washing with TBS-T (TBS with 0.05 Tween-20), membranes were incubated with the HRP (Horseradish peroxidase)-linked secondary antibody (IgG donkey anti-rabbit IgG (NA934) (GE LifeSciences, Marlborough, MA). Blots were developed using ECL prime (GE LifeSciences, RPN2232) and digitally captured on an LAS4000 (GE LifeSciences). After stripping, the membrane was re-probed with a mouse monoclonal antibody to GAPDH (Santa Cruz) followed by a secondary IgG sheep anti-mouse IgG (NA931). Western blot bands were quantified using Fiji (Schindelin et al., 2012).

EphA2 [3] = target: T1, EphA2 (Homo sapiens (Human), UniProt P29317); assay: Binding affinity to EphA2 by microscale thermophoresis (MST); conditions: for Kd: towards EphA2
Source text: The binding affinities of the compounds to EphA2 were investigated by microscale thermophoresis (MST) (M. Jerabek-Willemsen et al., J. Mol. Struct. 2014, 1077, 101-113).

SW620 = assay: Cell cycle analysis by flow cytometry in colorectal cancer cells (SW620); assay type: cell-based, human; conditions: 72 hours; compared to control and NVP/NVP-Iso
Experimental: Cell cycle was assessed by flow cytometry. Adherent cells were harvested, washed with PBS and fixed for 30 minutes in cold 70% ethanol at 4° C. Cells were washed twice with PBS, treated with 2.5 μg/mL RNaseA (ThermoFisher, 12091039) for 30 minutes at room temperature, and then stained with 10 μg propidium iodide for 15 minutes prior to analysis performed on FACS Canton (BD Biosciences; San Jose, CA) and cell cycled analyzed (FloJo software).

EphB2 = EphB2 (Homo sapiens (Human), UniProt P29323); assay: Endogenous EphB2 tyrosine phosphorylation by ELISA in Colo-205 cell lysates; assay type: cell-based; conditions: for reduction of EphB2 phosphorylation: at 2 μM
Experimental: (§1) ELISA. ELISA plates (ThermoFisher Scientific, Immulon 4HBX, 3855) were coated overnight at 4° C. with capture antibody 75 ng/well in PBS, and blocked with 5% BSA (Sigma-Aldrich, St. Louis, MO) in PBS for two hours at room temperature. Capture antibodies for EphB4 was goat polyclonal antibody (R&D Systems AF3038); for EphA2 was goat polyclonal antibody (R&D Systems AF3035); 10 ug of cell lysate was applied to the ELISA well for two hours at room temperature. The amount of tyrosine phosphorylation was measured with pTyr-HRP antibody (R&D Systems, HAM1676). The ELISA was developed with 3,3′,5,5′-Tetramethylbenzidine (TMB) (ThermoFisher Scientific, 7588927) for 15 minutes and stopped with 1M H2SO4 (Sigma-Aldrich, 258105). Absorbance at 450 nm was measured using POLARstar Optima plate reader (BMG Labtech, Cary, NC). All conditions were tested in duplicate. pEphB2 was measured by ELISA (Ray Biotech, PEL-EphB2-Y) according to the manufacturer's recommendations.

EphA2 [4] = target: T1, EphA2; assay: Endogenous EphA2 tyrosine phosphorylation by ELISA in RKO cell lysates; assay type: cell-based; conditions: for reduction of EphA2 phosphorylation: at 2 μM
Experimental: as §1

EphB4 = EphB4 (Homo sapiens (Human), UniProt P54760); assay: Endogenous EphB4 tyrosine phosphorylation by ELISA in HT29 cell lysates; assay type: cell-based; conditions: for reduction of EphB4 phosphorylation: at 2 μM
Experimental: as §1

SW620 cells = assay: Cleaved caspase-3 immunofluorescence microscopy in colorectal cancer cells (SW620); assay type: cell-based, human; conditions: 72 hours
Experimental: Cell viability was also measured by detection of cell-associated cleaved caspase-3. Cells were grown on gelatin-coated glass chamber slides, fixed in 4% paraformaldehyde, immune-stained with rabbit monoclonal antibody to cleaved Caspase 3 (1:100 Cell Signaling Technology) followed by Alexa Fluor 488-conjugated anti-rabbit IgG (1:400 Invitrogen) and mounted with Vectastain containing DAPI (Vector Laboratories). The slides were imaged through a Zeiss LSM780 confocal microscope. Image quantification (cleaved Caspase-3^+ nucleiltotal nuclei) was performed by CellProfiler software.

MG63 = MG63 proliferation (specificity control); assay type: cell-based, human; conditions: 125-2000 nM
HUVEC = HUVEC proliferation (specificity control); assay type: cell-based, human; conditions: 125-2000 nM
LC3 = LC3 autophagic puncta imaging in HT-29 cells transduced with fluorescent LC3; assay type: cell-based, human
Experimental: Autophagy-related cell death was assessed by evaluation of LC3 autophagy-associated protein. The cells were first induced to stably express fluorescent pK (pHluorin-mKate2) LC3 by lentiviral infection. The cells were subsequently grown on glass coverslips (ThermoFisher, 12-545-81) until 50% confluent. Coverslips were washed with PBS −/−, fixed with 4% PEA for 15 minutes at room temperature, washed with TBS, mounted with DAPI-containing mounting media, allowed to harden overnight and sealed. Coverslips were imaged on a confocal Zeiss 780 microscope. Images were analyzed by CellProfiler using automatic thresholding to calculate the number of nuclei (DAPI staining) and the number of puncta. The results are expressed as the percent cells with two or more puncta. […] Monolayer cell confluency overtime was measured by IncuCyte HD (Essen BioSciences) imaging.
Immunostaining and microscopy. […] Maximum intensity projections (Zen Software 2.3 Blue Edition; Carl Zeiss) were used for quantification using CellProfiler software (Kamentsky et al., Bioinformatics 2011, 27:1179-1180) with automatic thresholding. Integrated intensity of CD31 was measured. The percent Ki-67 positive cells was measured by calculating the number of Ki-67 positive cells/total number DAPI^+ nuclei. The area of cleaved Caspase-3 positive area/total area was calculated by CellProfiler with automatic threshold. […]

[5] = system: colorectal carcinoma cell lines; assay: Proliferation of 10 colorectal carcinoma cell lines; assay type: cell-based, human; conditions: 1 μM, all colorectal carcinoma cell lines

Sequence of EphB4 (P54760 16-987): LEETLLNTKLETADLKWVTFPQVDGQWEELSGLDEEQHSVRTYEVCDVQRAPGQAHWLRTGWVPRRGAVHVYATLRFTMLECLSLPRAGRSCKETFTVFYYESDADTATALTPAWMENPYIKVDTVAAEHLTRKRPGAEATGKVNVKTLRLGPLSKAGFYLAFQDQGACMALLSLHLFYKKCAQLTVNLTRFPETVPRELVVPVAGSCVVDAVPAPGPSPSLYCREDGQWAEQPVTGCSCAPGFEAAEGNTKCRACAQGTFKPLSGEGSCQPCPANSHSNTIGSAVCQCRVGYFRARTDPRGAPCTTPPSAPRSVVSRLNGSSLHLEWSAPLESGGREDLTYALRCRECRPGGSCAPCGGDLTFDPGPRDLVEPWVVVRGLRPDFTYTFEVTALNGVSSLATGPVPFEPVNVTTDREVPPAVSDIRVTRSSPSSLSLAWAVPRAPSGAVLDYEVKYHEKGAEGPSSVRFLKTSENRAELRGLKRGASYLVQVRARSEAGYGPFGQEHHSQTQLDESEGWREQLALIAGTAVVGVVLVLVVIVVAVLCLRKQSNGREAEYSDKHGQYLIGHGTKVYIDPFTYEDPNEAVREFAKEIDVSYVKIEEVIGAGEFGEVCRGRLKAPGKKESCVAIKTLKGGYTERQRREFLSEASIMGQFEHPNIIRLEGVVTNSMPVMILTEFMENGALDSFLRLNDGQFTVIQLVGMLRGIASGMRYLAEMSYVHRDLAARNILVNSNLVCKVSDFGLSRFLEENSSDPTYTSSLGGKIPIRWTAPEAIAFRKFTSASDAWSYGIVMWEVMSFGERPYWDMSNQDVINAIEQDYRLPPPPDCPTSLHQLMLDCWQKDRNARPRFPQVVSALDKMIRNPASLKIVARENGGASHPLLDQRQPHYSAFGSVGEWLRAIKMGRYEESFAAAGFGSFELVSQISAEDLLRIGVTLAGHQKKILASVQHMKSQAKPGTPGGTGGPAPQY
Sequence of EphB2 (P29323 19-1055): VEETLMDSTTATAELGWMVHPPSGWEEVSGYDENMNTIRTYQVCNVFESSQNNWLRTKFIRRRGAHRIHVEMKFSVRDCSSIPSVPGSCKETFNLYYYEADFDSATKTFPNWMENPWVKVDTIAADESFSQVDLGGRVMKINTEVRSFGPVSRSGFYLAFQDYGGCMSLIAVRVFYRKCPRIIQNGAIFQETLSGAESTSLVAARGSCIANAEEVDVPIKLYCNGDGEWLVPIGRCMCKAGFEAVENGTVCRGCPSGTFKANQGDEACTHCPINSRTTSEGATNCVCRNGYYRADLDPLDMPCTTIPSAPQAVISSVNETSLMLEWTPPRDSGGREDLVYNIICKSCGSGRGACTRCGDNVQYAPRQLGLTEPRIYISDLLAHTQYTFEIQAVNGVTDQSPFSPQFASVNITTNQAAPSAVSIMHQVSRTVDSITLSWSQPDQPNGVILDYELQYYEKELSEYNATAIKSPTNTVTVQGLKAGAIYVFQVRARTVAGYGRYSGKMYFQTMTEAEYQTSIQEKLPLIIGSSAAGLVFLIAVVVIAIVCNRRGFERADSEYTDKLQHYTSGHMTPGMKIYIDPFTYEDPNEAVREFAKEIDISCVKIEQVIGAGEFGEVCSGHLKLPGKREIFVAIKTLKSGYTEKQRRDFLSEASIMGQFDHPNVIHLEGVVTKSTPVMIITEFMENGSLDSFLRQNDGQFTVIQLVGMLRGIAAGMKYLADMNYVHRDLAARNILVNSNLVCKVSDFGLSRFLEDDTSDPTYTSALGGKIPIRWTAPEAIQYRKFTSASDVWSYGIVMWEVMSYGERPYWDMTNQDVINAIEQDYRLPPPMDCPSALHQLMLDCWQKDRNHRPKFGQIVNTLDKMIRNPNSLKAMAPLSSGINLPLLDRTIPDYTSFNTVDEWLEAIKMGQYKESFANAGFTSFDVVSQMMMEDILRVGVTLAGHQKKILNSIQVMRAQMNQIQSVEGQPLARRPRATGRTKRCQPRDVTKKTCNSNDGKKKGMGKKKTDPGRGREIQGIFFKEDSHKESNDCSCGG
T1 sequence (P29317 24-976): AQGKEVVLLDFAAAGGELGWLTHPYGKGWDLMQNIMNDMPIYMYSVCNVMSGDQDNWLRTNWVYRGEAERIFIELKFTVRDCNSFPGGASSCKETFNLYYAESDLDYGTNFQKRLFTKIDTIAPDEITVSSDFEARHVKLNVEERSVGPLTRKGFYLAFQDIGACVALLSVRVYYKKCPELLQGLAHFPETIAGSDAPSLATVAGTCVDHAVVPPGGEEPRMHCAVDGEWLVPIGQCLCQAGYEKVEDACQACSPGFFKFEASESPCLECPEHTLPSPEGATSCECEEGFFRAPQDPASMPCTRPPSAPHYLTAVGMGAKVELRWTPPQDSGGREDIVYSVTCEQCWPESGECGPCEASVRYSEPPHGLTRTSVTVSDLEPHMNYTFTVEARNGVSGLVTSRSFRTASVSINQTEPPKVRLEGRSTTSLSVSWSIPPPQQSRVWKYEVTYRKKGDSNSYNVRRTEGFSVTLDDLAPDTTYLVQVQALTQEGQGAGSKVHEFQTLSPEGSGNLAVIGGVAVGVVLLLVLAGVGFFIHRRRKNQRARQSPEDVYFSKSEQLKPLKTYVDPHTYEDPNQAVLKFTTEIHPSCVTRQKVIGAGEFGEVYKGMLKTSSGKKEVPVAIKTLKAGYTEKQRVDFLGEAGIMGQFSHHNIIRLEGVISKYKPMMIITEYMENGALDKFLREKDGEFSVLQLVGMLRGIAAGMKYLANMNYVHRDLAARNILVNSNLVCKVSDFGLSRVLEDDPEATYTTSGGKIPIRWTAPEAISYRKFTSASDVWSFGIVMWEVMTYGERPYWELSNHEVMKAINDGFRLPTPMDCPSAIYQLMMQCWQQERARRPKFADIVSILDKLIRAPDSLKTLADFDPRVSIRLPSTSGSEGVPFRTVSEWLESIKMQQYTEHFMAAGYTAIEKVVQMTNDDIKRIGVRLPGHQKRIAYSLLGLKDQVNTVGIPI

Which results are given for `Cn1cnc(N)c2ncnc1-2` [3-Methyladenine]?
anti-proliferative effects of NVP and NVP-Iso in colorectal cancer cells (HT-29 cells): mitigated the anti-proliferative; LC3B accumulation in cells treated with 1 μM NVP or NVP-Iso (LC3B [1]): reduced accumulation of LC3B; LC3B accumulation induced by NVP and NVP-Iso in SW620 cells (LC3B [2]): reduces this LC3B accumulation

How did the “fold lower binding affinity towards EphA2” value (EphA2 [3]; compared with @1 and @3) turn out when `Cc1ccc(C(=O)Nc2cccc(C(F)(F)F)c2)cc1Nc1nc(-c2cnccn2)nc2nn(C)cc12` [@2, 4-Methyl-3-((2-methyl-6-(pyrazin-2-yl)-2H-pyrazolo[3,4-d]pyrimidin-4-yl)amino)-N-(3-(trifluoromethyl)-phenyl)benzamide] was run?
Its value is 44 fold.

What about the Kd (EphA2 [3]) of the same compound?
The Kd was 132 nM.

`Cc1ccc(C(=O)Nc2cccc(C(F)(F)F)c2)cc1Nc1nc(-c2cncnc2)nc2c1cnn2C` [@3, 4-Methyl-3-((1-methyl-6-(pyrimidin-5-yl)-1H-pyrazolo[3,4-d]pyrimidin-4-yl)amino)-N-(3-(trifluoromethyl)phenyl)benzamide] was tested. Which “distribution of cells within the cell cycle” value (SW620) did it give?
The value was “marked reduction of the proportion of cells within the G2M phase”.

And the “inhibitory activity for p-EphB2 compared to NVP” value (EphB2; four hours treatment)?
The value was “comparable or only slightly reduced inhibitory activity”.

And the “induction of autophagosome marker LC3B (immunoblotting)” value (LC3B [1]; 72-hour incubation)?
Its value is “failure”.

And the “inhibitory activity for p-EphA2 compared to NVP” value (EphA2 [4]; four hours treatment)?
Its value is “comparable or only slightly reduced inhibitory activity”.

And the “inhibitory activity for p-EphB4 compared to NVP” value (EphB4; four hours treatment)?
Its value is “comparable or only slightly reduced inhibitory activity”.

And the “cleaved caspase-3 detection in treated cells” value (SW620 cells)?
The value was “only in a minority of cells”.

How did the Kd (EphA2 [3]) turn out when `Cc1ccc(C(=O)Nc2cccc(C(F)(F)F)c2)cc1Nc1nc(-c2cccnc2)nc2ccccc12` [@4, 4-Methyl-3-((2-(pyridin-3-yl)quinazolin-4-yl)amino)-N-(3-(trifluoromethyl)phenyl)benzamide] was run?
Its Kd is 86 nM.

How did the Kd (EphA2 [3]) turn out when `Cc1ccc(C(=O)Nc2cccc(C(F)(F)F)c2)cc1Nc1nc(-c2cccnc2)nc2ncccc12` [@5, 4-Methyl-3-((2-(pyridin-3-yl)pyrido[2,3-d]pyrimidin-4-yl)amino)-N-(3-(trifluoromethyl)phenyl)benzamide] was run?
The Kd was 225 nM.

And the “reduction of EphB2 phosphorylation” value (EphB2)?
The value was “marginal reduction”.

And the “reduction of EphA2 phosphorylation” value (EphA2 [4])?
The value was “marginal reduction”.

And the “reduction of EphB4 phosphorylation” value (EphB4)?
The value was “marginal reduction”.

How did the Kd (EphA2 [3]) turn out when `Cc1ccc(C(=O)Nc2cccc(C(F)(F)F)c2)cc1Nc1nc(-c2cccnc2)nc(-c2cccnc2)n1` [@6, 3-((4,6-Di(pyridin-3-yl)-1,3,5-triazin-2-yl)amino)-4-methyl-N-(3-(trifluoromethyl)phenyl)benzamide] was run?
Its Kd is 24 nM.

How did the Kd (EphA2 [3]) turn out when `Cc1cc(C(=O)Nc2cccc(C(F)(F)F)c2)ccc1Nc1nc(-c2cnccn2)nc2nn(C)cc12` [@7] was run?
Its Kd is roughly 2880 nM.

`Cc1cc(C(=O)Nc2cccc(C(F)(F)F)c2)ccc1Nc1nc(N2CCCC2)nc(-n2ccnc2)n1` [@9] was tested. Which Kd (EphA2 [3]) did it give?
The Kd was 34 nM.

Which Kd (EphA2 [3]) does the source give for `Cc1ccc(C(=O)Nc2cccc(C(F)(F)F)c2)cc1Nc1nc(N2CCOCC2)nc(-n2ccnc2)n1` [@10, 3-((4-(1H-imidazol-1-yl)-6-morpholino-1,3,5-triazin-2-yl)amino)-4-methyl-N-(3-(trifluoromethyl)phenyl)benzamide] here?
Its Kd is 191 nM.

What about the “reduction of EphB2 phosphorylation” value (EphB2) of the same compound?
The value was “marginal reduction”.

And the “reduction of MG63 cell proliferation” value (MG63)?
The value was “moderately inhibitory”.

And the “reduction of HUVECs proliferation” value (HUVEC)?
The value was “moderately inhibitory”.

And the LC3-related autophagy puncta (LC3; 72 hours)?
Its LC3-related autophagy puncta is “also induced LC3B-related puncta”.

And the “reduction of EphA2 phosphorylation” value (EphA2 [4])?
Its value is “marginal reduction”.

And the “reduction of EphB4 phosphorylation” value (EphB4)?
Its value is “marginal reduction”.

For `Cc1cc(C(=O)Nc2cccc(C(F)(F)F)c2)ccc1Nc1nc(N2CCNCC2)nc(-n2ccnc2)n1` [@11], which Kd (EphA2 [3]) is on record?
The Kd was 443 nM.

`Cc1cc(C(=O)Nc2cccc(C(F)(F)F)c2)ccc1Nc1nc(N2CC[C@H](O)C2)nc(-n2ccnc2)n1` [@12] was tested. Which Kd (EphA2 [3]) did it give?
Its Kd is 132 nM.

`Cc1ccc(C(=O)Nc2cccc(Cl)c2)cc1Nc1nc(N2CC[C@H](O)C2)nc(-n2ccnc2)n1` [@13, (S)-N-(3-chlorophenyl)-3-((4-(3-hydroxypyrrolidin-1-yl)-6-(1H-imidazol-1-yl)-1,3,5-triazin-2-yl)amino)-4-methylbenzamide] was tested. Which Kd (EphA2 [3]) did it give?
Its Kd is 97 nM.

For `Cc1ccc(C(=O)Nc2cccc(C(F)(F)F)c2)cc1Nc1nc(-c2cccnc2)nc2c1cnn2C` [NVP, NVP-BHG712], which reduction of proliferation [5] is on record?
The reduction of proliferation was greater than 50%.

Which results are given for `Fc1ccc(CNc2ncnc3ccc(F)cc23)cc1` [Spautin, spautin-1]?
anti-proliferative effects of NVP and NVP-Iso in colorectal cancer cells (HT-29 cells): mitigated the anti-proliferative; LC3B accumulation in cells treated with 1 μM NVP or NVP-Iso (LC3B [1]): reduced accumulation of LC3B; LC3-related puncta/cell increased by NVP and NVP-Iso (LC3; spautin 4-hour pretreatment): reduces this drug-effect; LC3B accumulation induced by NVP and NVP-Iso in SW620 cells (LC3B [2]): reduces this LC3B accumulation

With `CCN(CC)CCCC(C)Nc1ccnc2cc(Cl)ccc12` (centres unmarked) [chloroquine, Chloroquine] as the compound, how does the “LC3B accumulation in cells treated with 1 μM NVP or NVP-Iso” value (LC3B [1]) read?
The value was “enhanced the accumulation of LC3B”.

— patent US12486270B2, “Receptor tyrosine kinase inhibitors for treatment of protein kinase modulation-responsive disease or disorder” (THE UNITED STATES OF AMERICA, as represented by the …, priority 2019, dated 2025)
